Tests used:
Format in all cases: cell-based
PPAR-alpha = target: T1, PPAR-alpha (Homo sapiens, UniProt Q07869); assay: human PPAR-GAL4 chimera luciferase reporter assay in CV-1 cells, PPAR-alpha; settings: Table 3, Examples 11-25, read-out: PPAR alpha (EC50)
T1 construct: expressed in transfected cells; host or cells: CV-1 cells
T1 sequence (Q07869 239-466 limits assumed): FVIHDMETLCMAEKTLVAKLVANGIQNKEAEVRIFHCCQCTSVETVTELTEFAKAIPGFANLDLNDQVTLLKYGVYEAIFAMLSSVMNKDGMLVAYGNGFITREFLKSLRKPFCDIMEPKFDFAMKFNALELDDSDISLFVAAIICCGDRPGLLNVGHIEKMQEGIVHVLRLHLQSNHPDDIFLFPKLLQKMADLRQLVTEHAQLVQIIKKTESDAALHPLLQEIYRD
Experimental: (§1) The compounds were evaluated in a cell-based assay to determine their human PPAR activity. The plasmids for human PPAR-GAL4 chimeras were prepared by fusing amplified cDNAs encoding the LBDs of PPARs to the C-terminal end of the yeast GAL4 DNA binding domain. CV-1 cells were grown and transiently transected with PerFectin (GTS, San Diego, Calif.) according to the manufacturer's protocol along with a luciferase reporter. Eight hours after transfection, 50 μl of cells were replated into 384 well plates ([…]). Sixteen hours after replating, cells were treated with either compounds or 1% DMSO for 24 hours. Luciferase activity was then assayed with Britelite (Perkin Elmer) following the manufacturer's protocol and measured with either the Perkin Elmer Viewlux or Molecular Devices Acquest.
(§2) Compounds may be screened for functional potency in transient transfection assays in CV-1 cells for their ability to activate the PPAR subtypes (transactivation assay). A previously established chimeric receptor system was utilized to allow comparison of the relative transcriptional activity of the receptor subtypes on the same synthetic response element and to prevent endogenous receptor activation from complicating the interpretation of results. See, for example, Lehmann, J. M.; Moore, L. B.; Smith-Oliver, T. A; Wilkinson, W. O.; Willson, T. M.; Kliewer, S. A., An antidiabetic thiazolidinedione is a high affinity ligand for peroxisome proliferator-activated receptory γ (PPARγ), J. Biol. Chem., 1995, 270, 12953-6. The ligand binding domains for murine and human PPAR-alpha, PPAR-gamma, and PPAR-delta are each fused to the yeast transcription factor GAL4 DNA binding domain. CV-1 cells were transiently transfected with expression vectors for the respective PPAR chimera along with a reporter construct containing four or five copies of the GAL4 DNA binding site driving expression of luciferase. After 8-16 h, the cells are replated into multi-well assay plates and the media is exchanged to phenol-red free DME medium supplemented with 5% delipidated calf serum. 4 hours after replating, cells were treated with either compounds or 1% DMSO for 20-24 hours. Luciferase activity was then assayed with Britelite (Perkin Elmer) following the manufacturer's protocol and measured with either the Perkin Elmer Viewlux or Molecular Devices Acquest (see, for example, Kliewer, S. A., et. al. Cell 1995, 83, 813-819). Rosiglitazone is used as a positive control in the hPPAR-γ assay. Wy-14643 and GW7647 is used as a positive control in the hPPAR-α assay. GW501516 is used as the positive control in the hPPAR-δ assay.

PPAR-gamma = target: T2, PPAR-gamma (Homo sapiens, UniProt P37231); assay: human PPAR-GAL4 chimera luciferase reporter assay in CV-1 cells, PPAR-gamma; settings: Table 3, Examples 11-25, read-out: PPAR gamma (EC50)
T2 construct: expressed in transfected cells; host or cells: CV-1 cells
T2 sequence (P37231 238-503 limits assumed): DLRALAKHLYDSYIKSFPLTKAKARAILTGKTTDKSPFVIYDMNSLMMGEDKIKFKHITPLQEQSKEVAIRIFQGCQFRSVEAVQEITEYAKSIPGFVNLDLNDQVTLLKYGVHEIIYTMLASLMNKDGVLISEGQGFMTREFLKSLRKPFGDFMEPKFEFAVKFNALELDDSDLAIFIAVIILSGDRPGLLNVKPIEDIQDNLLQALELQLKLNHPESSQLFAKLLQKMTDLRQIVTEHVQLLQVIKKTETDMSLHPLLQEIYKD
Experimental: as §1, §2

PPAR-delta = target: T3, PPAR-delta (Homo sapiens, UniProt Q03181); assay: human PPAR-GAL4 chimera luciferase reporter assay in CV-1 cells, PPAR-delta; settings: Table 3, Examples 11-25, read-out: PPAR delta (EC50)
T3 construct: expressed in transfected cells; host or cells: CV-1 cells
T3 sequence (Q03181 211-439 limits assumed): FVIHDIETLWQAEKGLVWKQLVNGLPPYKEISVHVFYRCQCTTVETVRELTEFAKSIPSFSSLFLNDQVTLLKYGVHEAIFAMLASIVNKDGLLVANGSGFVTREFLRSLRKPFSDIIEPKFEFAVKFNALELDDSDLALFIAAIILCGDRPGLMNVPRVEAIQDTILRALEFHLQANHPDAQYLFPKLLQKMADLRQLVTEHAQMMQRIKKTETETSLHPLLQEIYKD
Experimental: as §1, §2

Cc1nc(-c2ccc(C(F)(F)F)cc2)sc1Cn1ccc2cccc(OCC(=O)O)c21 [Example 14, {1-[4-Methyl-2-(4-trifluoromethyl-phenyl)-thiazol-5-ylmethyl]-1H-indol-7-yloxy}-acetic acid]
EC50 (PPAR-alpha): > 100 µM | EC50 (PPAR-gamma): 5 to 100 µM | EC50 (PPAR-delta): 5 to 100 µM

Cc1nc(-c2ccc(C(F)(F)F)cc2)sc1Cn1ccc2cc(OC(C)(C)C(=O)O)ccc21 [Example 15, 2-Methyl-2-{1-[4-methyl-2-(4-trifluoromethyl-phenyl)-thiazol-5-ylmethyl]-1H-indol-5-yloxy}-propionic acid]
EC50 (PPAR-alpha): < 5 µM | EC50 (PPAR-gamma): 5 to 100 µM | EC50 (PPAR-delta): < 5 µM

Cc1nc(-c2ccc(C(F)(F)F)cc2)sc1Cn1ccc2ccc(OC(C)(C)C(=O)O)cc21 [Example 16, 2-Methyl-2-{1-[4-methyl-2-(4-trifluoromethyl-phenyl)-thiazol-5-ylmethyl]-1H-indol-6-yloxy}-propionic acid]
EC50 (PPAR-alpha): 5 to 100 µM | EC50 (PPAR-gamma): 5 to 100 µM | EC50 (PPAR-delta): < 5 µM

Cc1nc(-c2ccc(C(F)(F)F)cc2)sc1CCN1CCc2cc(OCC(=O)O)ccc21 [Example 17, (1-{2-[4-Methyl-2-(4-trifluoromethyl-phenyl)-thiazol-5-yl]-ethyl}-2,3-dihydro-1H-indol-5-yloxy)-acetic acid]
EC50 (PPAR-alpha): 5 to 100 µM | EC50 (PPAR-gamma): 5 to 100 µM | EC50 (PPAR-delta): 5 to 100 µM

Cc1nc(-c2ccc(C(F)(F)F)cc2)sc1CCn1ccc2cc(OCC(=O)O)ccc21 [Example 18, (1-{2-[4-Methyl-2-(4-trifluoromethyl-phenyl)-thiazol-5-yl]-ethyl}-1H-indol-5-yloxy)-acetic acid]
EC50 (PPAR-alpha): 5 to 100 µM | EC50 (PPAR-gamma): 5 to 100 µM | EC50 (PPAR-delta): 5 to 100 µM

Cc1nc(-c2ccc(C(F)(F)F)cc2)sc1CCN1CCc2cc(OC(C)(C)C(=O)O)ccc21 [Example 19, 2-Methyl-2-(1-{2-[4-methyl-2-(4-trifluoromethyl-phenyl)-thiazol-5-yl]-ethyl}-2,3-dihydro-1H-indol-5-yloxy)-propionic acid]
EC50 (PPAR-alpha): < 5 µM | EC50 (PPAR-gamma): 5 to 100 µM | EC50 (PPAR-delta): < 5 µM

Cc1nc(-c2ccc(C(F)(F)F)cc2)sc1CCN1CCc2ccc(OC(C)(C)C(=O)O)cc21 [Example 20, 2-Methyl-2-(1-{2-[4-methyl-2-(4-trifluoromethyl-phenyl)-thiazol-5-yl]-ethyl}-2,3-dihydro-1H-indol-6-yloxy)-propionic acid]
EC50 (PPAR-alpha): < 5 µM | EC50 (PPAR-gamma): 5 to 100 µM | EC50 (PPAR-delta): 5 to 100 µM

Cc1nc(-c2ccc(C(F)(F)F)cc2)sc1CCn1ccc2cc(OC(C)(C)C(=O)O)ccc21 [Example 21, 2-Methyl-2-(1-{2-[4-methyl-2-(4-trifluoromethyl-phenyl)-thiazol-5-yl]-ethyl}-1H-indol-5-yloxy)-propionic acid]
EC50 (PPAR-alpha): 5 to 100 µM | EC50 (PPAR-gamma): 5 to 100 µM | EC50 (PPAR-delta): 5 to 100 µM

Cc1nc(-c2ccc(C(F)(F)F)cc2)sc1CCn1ccc2ccc(OCC(=O)O)cc21 [Example 22, (1-{2-[4-Methyl-2-(4-trifluoromethyl-phenyl)-thiazol-5-yl]-ethyl}-1H-indol-6-yloxy)-acetic acid]
EC50 (PPAR-alpha): 5 to 100 µM | EC50 (PPAR-gamma): 5 to 100 µM | EC50 (PPAR-delta): 5 to 100 µM

Cc1nc(-c2ccc(C(F)(F)F)cc2)sc1CCn1ccc2ccc(OC(C)(C)C(=O)O)cc21 [Example 23, 2-Methyl-2-(1-{2-[4-methyl-2-(4-trifluoromethyl-phenyl)-thiazol-5-yl]-ethyl}-1H-indol-6-yloxy)-propionic acid]
EC50 (PPAR-alpha): < 5 µM | EC50 (PPAR-gamma): 5 to 100 µM | EC50 (PPAR-delta): 5 to 100 µM

Cc1nc(-c2ccc(C(F)(F)F)cc2)sc1Cn1cc(CC(=O)O)c2ccccc21 [Example 24, {1-[4-Methyl-2-(4-trifluoromethyl-phenyl)-thiazol-5-ylmethyl]-1H-indol-3-yl}acetic acid]
EC50 (PPAR-alpha): 5 to 100 µM | EC50 (PPAR-gamma): 5 to 100 µM | EC50 (PPAR-delta): < 5 µM

Cc1nc(-c2ccc(C(F)(F)F)cc2)sc1CCN1CCc2ccc(OCC(=O)O)cc21 [Example 25, (1-{2-[4-Methyl-2-(4-trifluoromethyl-phenyl)-thiazol-5-yl]-ethyl}-2,3-dihydro-1H-indol-6-yloxy)-acetic acid]
EC50 (PPAR-alpha): 5 to 100 µM | EC50 (PPAR-gamma): 5 to 100 µM | EC50 (PPAR-delta): < 5 µM
